Drawing on patent publication US20240270759A1, “Preparation of SHP2 phosphatase inhibitors and its applications” (Ya Therapeutics Inc, priority 2021, published 2024), this text covers IC50 for nine molecules.

In the test the target is T1, SHP2 full-length protein (Homo sapiens, UniProt Q06124).
T1 construct: purchased BPS Bioscience #79330
T1 sequence (Q06124 1-593): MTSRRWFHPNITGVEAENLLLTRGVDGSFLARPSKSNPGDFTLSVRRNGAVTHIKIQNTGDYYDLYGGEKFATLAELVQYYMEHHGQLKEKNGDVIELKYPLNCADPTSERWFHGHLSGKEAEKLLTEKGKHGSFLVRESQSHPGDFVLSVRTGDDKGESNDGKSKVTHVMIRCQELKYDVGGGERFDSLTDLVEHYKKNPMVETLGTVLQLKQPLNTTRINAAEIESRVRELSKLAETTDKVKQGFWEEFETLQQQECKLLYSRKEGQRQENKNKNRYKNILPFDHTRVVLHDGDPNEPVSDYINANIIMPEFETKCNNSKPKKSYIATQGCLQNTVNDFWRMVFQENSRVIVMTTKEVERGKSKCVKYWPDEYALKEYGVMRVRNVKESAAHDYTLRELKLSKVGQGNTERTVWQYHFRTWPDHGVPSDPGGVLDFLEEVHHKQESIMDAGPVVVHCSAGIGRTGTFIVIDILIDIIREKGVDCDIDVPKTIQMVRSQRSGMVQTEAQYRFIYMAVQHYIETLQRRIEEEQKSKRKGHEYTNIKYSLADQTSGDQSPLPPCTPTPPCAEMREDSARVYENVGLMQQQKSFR
Kind of test: SHP2 allosteric inhibition experiment (Homogeneous Full Length SHP-2 Assay Kit). The note with it: full-length SHP2 0.06 nM with SHP-2 activating peptide; ten-point, 1 μM to 0.05 nM; read-out: IC50 Values of Compounds Inhibiting SHP2. Type of test: biochemical.

Consider `C[C@@H]1OCC2(CCN(c3ncc(Sc4cccc(NC(=O)c5c(O)nc6n(c5=O)CCCC6)c4Cl)nn3)CC2)[C@@H]1N` [Compound 130, N-(3-((2-((3S,4S)-4-amino-3-methyl-2-oxa-8-azaspiro[4.5]decane-8-yl)-1,2,4-triazine-6-yl)mercapto)-2-chlorophenyl)-2-hydroxy-4-oxo-6,7,8,9-tetrahydro-4H-pyridinyl[1,2-a]pyrimidine-3-carboxamide], for which the IC50 was at most 10 nM. Regarding `CCn1ccc(-c2cccc(Sc3cnc(N4CCC5(CC4)CO[C@@H](C)[C@H]5N)nn3)c2Cl)n1` [Compound 131, (3S,4S)-8-(6-((2-chloro-3-(1-ethyl-1H-pyrazole-3-yl)phenyl)mercapto)-1,2,4-triazine-3-yl)-3-methyl-2-oxa-8-azaspiro[4.5]decane-4-amine], the concentration for half-maximal inhibition (IC50) is at most 10 nM. To `C[C@@H]1OCC2(CCN(c3ccc(Sc4cccc(-c5cnccn5)c4Cl)nn3)CC2)[C@@H]1N` [Compound 132, (3S,4S)-8-(3-((2-chloro-3-(pyrazine-2-yl)phenyl)mercapto)pyridazine-6-yl)-3-methyl-2-oxa-8-azaspiro[4.5]decane-4-amine] belongs at most 10 nM. With `C[C@@H]1OCC2(CCN(c3nnc(Sc4cccc(-c5cnccn5)c4Cl)nn3)CC2)[C@@H]1N` [Compound 133, (3S,4S)-8-(3-((2-chloro-3-(pyrazine-2-yl)phenyl)mercapto)-tetrazine-6-yl)-3-methyl-2-oxa-8-azaspiro[4.5]decane-4-amine] the figure was at most 10 nM.

In the case of `C[C@@H]1OCC2(CCN(c3cnc(Sc4cccc(-c5cnccn5)c4Cl)nn3)CC2)[C@@H]1N` [Compound 134, (3S,4S)-8-(3-((2-chloro-3-(pyrazine-2-yl)phenyl)mercapto)-1,2,4-triazine-6-yl)-3-methyl-2-oxa-8-azaspiro[4.5]decane-4-amine], the half-inhibitory concentration (IC50) was at most 10 nM. With `C[C@@H]1OCC2(CCN(c3ncc(Sc4cccc(-c5cnccn5)c4Cl)nn3)CC2)[C@@H]1N` [Compound 135, (3S,4S)-8-(6-((2-chloro-3-(pyrazine-2-yl)phenyl)mercapto)-1,2,4-triazine-3-yl)-3-methyl-2-oxa-8-azaspiro[4.5]decane-4-amine] the figure was at most 10 nM. In the case of `C[C@@H]1OCC2(CCN(c3nnc(Sc4cccc(NC(=O)c5c(O)nc6n(c5=O)CCCC6)c4Cl)nn3)CC2)[C@@H]1N` [Compound 137, N-(3-((5-((3S,4S)-4-amino-3-methyl-2-oxa-8-azaspiro[4.5]decane-8-yl)s-tetrazine-3-yl)mercapto)-2-chlorophenyl)-2-hydroxy-4-oxa-6,7,8,9-tetrahydro-4H-pyridinyl[1,2-a]pyrimidine-3-carboxamide], the half-maximal inhibitory concentration (IC50) was at most 10 nM. To “N-(3-((5-((3S,4S)-4-amino-3-methyl-2-oxa-8-azaspiro[4.5]decane-8-yl)-1,2,4-triazine-3-yl)mercapto)-2-chlorobenzene)-2-hydroxy-4-oxa-6,7,8,9-tetrahydro-4H-pyridinyl[1,2-a]pyrimidine-3-carboxamide [Compound 138]” belongs at most 10 nM; to “N-(3-((5-((3S,4S)-4-amino-3-methyl-2-oxa-8-azaspiro[4.5]decane-8-yl)pyridazine-3-yl) mercapto)-2-chlorophenyl)-2-hydroxy-4-oxa-6,7,8,9-tetrahydro-4H-pyridinyl[1,2-a]pyrimidine-3-carboxamide [Compound 136]”, at most 10 nM.
